Like-named read-outs stand apart in the source and are kept apart here.
How the values were obtained:
Experiment in all cases: Ras-Raf disruption / FRET / MOA assay (BRAF RBD)
Format in all cases: biochemical
[1] = target: KRAS G12C (Homo sapiens, UniProt P01116+P62937, G12C); details: with Cyclophilin A
Summary of the method: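 TR-FRET read-out after 1.5 h with anti-His Eu-W1024 (10 nM) and anti-GST APC (50 nM), following 3 h at 25 °C of compound (top 30 μM, 3-fold, 10 points) with 25 μM Cyclophilin A, 12.5 nM GMPPNP-loaded K-Ras G12C and 50 nM BRAF RBD; IC50 reported.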

[2] = target: KRAS Q61H (Homo sapiens, UniProt P01116+P62937, Q61H)
Chain of KRAS Q61H (P01116 1-169 isoform P01116-2 Q61H limits assumed): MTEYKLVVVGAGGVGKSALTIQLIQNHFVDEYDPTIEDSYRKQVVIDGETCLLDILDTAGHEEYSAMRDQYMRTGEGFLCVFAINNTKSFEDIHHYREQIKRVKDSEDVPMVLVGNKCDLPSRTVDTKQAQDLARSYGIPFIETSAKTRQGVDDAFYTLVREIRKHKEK
Chain of KRAS Q61H (P62937 whole entry): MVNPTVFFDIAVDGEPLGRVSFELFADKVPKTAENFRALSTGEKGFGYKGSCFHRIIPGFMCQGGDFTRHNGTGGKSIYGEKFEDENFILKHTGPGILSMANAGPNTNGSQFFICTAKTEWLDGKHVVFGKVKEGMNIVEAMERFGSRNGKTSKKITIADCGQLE
Summary of the method: (§1)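 Compound-induced Ras–Cyclophilin A ternary complex disrupting BRAF RBD binding, read as IC50 from reduced TR-FRET ratio relative to DMSO. Final: Ras-GMPPNP 12.5 nM, BRAF RBD 50 nM, Cyclophilin A 25 μM, top compound 30 μM (3-fold, 10 points); 3 h at 25 °C, then 1.5 h with detection antibodies.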

[3] = target: KRAS WT (Homo sapiens, UniProt P01116+P62937); details: with Cyclophilin A
Chain of KRAS WT (P01116 1-169 isoform P01116-2 limits assumed): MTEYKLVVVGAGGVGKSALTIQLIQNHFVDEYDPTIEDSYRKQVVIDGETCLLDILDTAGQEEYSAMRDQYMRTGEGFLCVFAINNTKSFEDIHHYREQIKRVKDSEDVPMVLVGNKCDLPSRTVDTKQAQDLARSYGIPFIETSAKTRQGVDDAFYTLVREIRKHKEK
Chain of KRAS WT (P62937 whole entry): as the sequence (P62937 whole entry) above
Summary of the method: as §1

[4] = target: KRAS G13D (Homo sapiens, UniProt P01116+P62937, G13D); details: with Cyclophilin A
Chain of KRAS G13D (P01116 1-169 isoform P01116-2 G13D limits assumed): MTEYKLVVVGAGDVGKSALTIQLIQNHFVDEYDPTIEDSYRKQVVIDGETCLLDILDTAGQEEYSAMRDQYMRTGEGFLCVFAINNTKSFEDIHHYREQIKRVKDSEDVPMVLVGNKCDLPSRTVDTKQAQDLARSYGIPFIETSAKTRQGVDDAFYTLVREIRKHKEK
Chain of KRAS G13D (P62937 whole entry): as the sequence (P62937 whole entry) above
Summary of the method: as §1

[5] = target: NRAS G12C (Homo sapiens, UniProt P01111+P62937, G12C)
Chain of NRAS G12C (P01111 whole entry G12C): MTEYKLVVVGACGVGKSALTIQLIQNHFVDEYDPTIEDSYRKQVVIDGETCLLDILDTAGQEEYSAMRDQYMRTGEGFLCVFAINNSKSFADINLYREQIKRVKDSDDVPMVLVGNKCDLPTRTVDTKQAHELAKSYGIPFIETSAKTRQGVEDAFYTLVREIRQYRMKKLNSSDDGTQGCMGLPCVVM
Chain of NRAS G12C (P62937 whole entry): as the sequence (P62937 whole entry) above
Summary of the method: as §1

[6] = target: KRAS G12V (Homo sapiens, UniProt P01116+P62937, G12V); details: with Cyclophilin A
Chain of KRAS G12V (P01116 1-169 isoform P01116-2 G12V limits assumed): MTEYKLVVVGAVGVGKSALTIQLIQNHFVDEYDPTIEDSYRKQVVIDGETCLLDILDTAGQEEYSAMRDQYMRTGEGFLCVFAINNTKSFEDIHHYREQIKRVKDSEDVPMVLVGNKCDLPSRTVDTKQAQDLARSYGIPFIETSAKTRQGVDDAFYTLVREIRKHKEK
Chain of KRAS G12V (P62937 whole entry): as the sequence (P62937 whole entry) above
Summary of the method: as §1

[7] = target: NRAS WT (Homo sapiens, UniProt P01111+P62937)
Chain of NRAS WT (P01111 whole entry): as the sequence (P01111 whole entry G12C) above, with C12G counted along it
Chain of NRAS WT (P62937 whole entry): as the sequence (P62937 whole entry) above
Summary of the method: as §1

[8] = target: NRAS Q61R (Homo sapiens, UniProt P01111+P62937, Q61R)
Chain of NRAS Q61R (P01111 whole entry Q61R): as the sequence (P01111 whole entry G12C) above, with C12G, Q61R counted along it
Chain of NRAS Q61R (P62937 whole entry): as the sequence (P62937 whole entry) above
Summary of the method: as §1

[9] = target: KRAS G12S (Homo sapiens, UniProt P01116+P62937, G12S); details: with Cyclophilin A
Chain of KRAS G12S (P01116 1-169 isoform P01116-2 G12S limits assumed): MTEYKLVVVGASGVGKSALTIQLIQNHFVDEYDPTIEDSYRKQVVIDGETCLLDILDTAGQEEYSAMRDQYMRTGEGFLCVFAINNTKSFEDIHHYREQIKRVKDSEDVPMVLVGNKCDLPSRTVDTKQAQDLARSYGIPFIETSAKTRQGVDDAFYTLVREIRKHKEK
Chain of KRAS G12S (P62937 whole entry): as the sequence (P62937 whole entry) above
Summary of the method: as §1

[10] = target: KRAS G13C (Homo sapiens, UniProt P01116+P62937, G13C); details: with Cyclophilin A
Chain of KRAS G13C (P01116 1-169 isoform P01116-2 G13C limits assumed): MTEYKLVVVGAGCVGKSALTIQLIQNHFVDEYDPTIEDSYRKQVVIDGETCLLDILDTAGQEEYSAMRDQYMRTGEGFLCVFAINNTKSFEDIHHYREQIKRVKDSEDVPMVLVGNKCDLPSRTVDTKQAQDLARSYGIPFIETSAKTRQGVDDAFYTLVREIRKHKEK
Chain of KRAS G13C (P62937 whole entry): as the sequence (P62937 whole entry) above
Summary of the method: as §1

[11] = target: NRAS Q61K (Homo sapiens, UniProt P01111+P62937, Q61K)
Chain of NRAS Q61K (P01111 whole entry Q61K): as the sequence (P01111 whole entry G12C) above, with C12G, Q61K counted along it
Chain of NRAS Q61K (P62937 whole entry): as the sequence (P62937 whole entry) above
Summary of the method: as §1

[12] = target: KRAS G12D (Homo sapiens, UniProt P01116+P62937, G12D); details: with Cyclophilin A
Chain of KRAS G12D (P01116 1-169 isoform P01116-2 G12D limits assumed): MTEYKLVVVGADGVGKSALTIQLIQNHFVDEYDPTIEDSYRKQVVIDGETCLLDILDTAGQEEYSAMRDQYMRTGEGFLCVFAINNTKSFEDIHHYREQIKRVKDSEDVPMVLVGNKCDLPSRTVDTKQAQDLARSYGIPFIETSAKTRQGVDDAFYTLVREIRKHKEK
Chain of KRAS G12D (P62937 whole entry): as the sequence (P62937 whole entry) above
Summary of the method: as §1

[13] = Ras-Raf disruption, read-out: KRAS G12C FRET data IC50
[14] = KRAS Q61H, read-out: KRAS Q61H FRET data IC50
[15] = Ras-Raf disruption, read-out: KRAS WT FRET data IC50
[16] = Ras-Raf disruption, read-out: KRAS G13D FRET data IC50
[17] = NRAS G12C, read-out: NRAS G12C FRET data IC50
[18] = Ras-Raf disruption, read-out: KRAS G12V FRET data IC50
[19] = NRAS WT, read-out: NRAS WT FRET data IC50
[20] = NRAS Q61R, read-out: NRAS Q61R FRET data IC50
[21] = Ras-Raf disruption, read-out: KRAS G12S FRET data IC50
[22] = Ras-Raf disruption, read-out: KRAS G13C FRET data IC50
[23] = NRAS Q61K, read-out: NRAS Q61K FRET data IC50
[24] = Ras-Raf disruption, read-out: KRAS G12D FRET data IC50
[25] = KRAS G12C FRET data IC50, Ras-Raf disruption
[26] = KRAS WT FRET data IC50, Ras-Raf disruption
[27] = KRAS G13D FRET data IC50, Ras-Raf disruption
[28] = NRAS G12C FRET data IC50, NRAS G12C
[29] = KRAS G12V FRET data IC50, Ras-Raf disruption
[30] = KRAS G12S FRET data IC50, Ras-Raf disruption
[31] = KRAS G13C FRET data IC50, Ras-Raf disruption
[32] = KRAS G12D FRET data IC50, Ras-Raf disruption

Chain of KRAS G12C (P01116 1-169 isoform P01116-2 G12C limits assumed): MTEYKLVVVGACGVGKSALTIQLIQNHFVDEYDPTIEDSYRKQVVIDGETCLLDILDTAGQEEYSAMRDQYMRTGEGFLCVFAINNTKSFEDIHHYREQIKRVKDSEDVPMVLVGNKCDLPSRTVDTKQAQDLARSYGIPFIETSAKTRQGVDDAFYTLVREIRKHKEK
Chain of KRAS G12C (P62937 whole entry): as the sequence (P62937 whole entry) above

| SMILES | IC50 [1, 13] | IC50 [2, 14] | IC50 [3, 15] | IC50 [4, 16] | IC50 [5, 17] | IC50 [6, 18] | IC50 [7, 19] | IC50 [8, 20] | IC50 [9, 21] | IC50 [10, 22] | IC50 [11, 23] | IC50 [12, 24] | IC50 [1, 25] | IC50 [2] | IC50 [3, 26] | IC50 [4, 27] | IC50 [5, 28] | IC50 [6, 29] | IC50 [7] | IC50 [8] | further results |
| --- | --- | --- | --- | --- | --- | --- | --- | --- | --- | --- | --- | --- | --- | --- | --- | --- | --- | --- | --- | --- | --- |
| CCn1c(-c2cccnc2[C@H](C)OC)c2c3cc(ccc31)-c1csc(n1)C[C@H](NC(=O)[C@H](C(C)C)N(C)C(=O)N1CCN(C(=O)[C@H]3CN3)[C@H](C)C1)C(=O)N1CCC[C@H](N1)C(=O)OCC(C)(C)C2 [Example 299] | 10 to 100 nM | 10 to 100 nM | 100 to 1000 nM | 100 to 1000 nM | 10 to 100 nM | 100 to 1000 nM | 100 to 1000 nM | 100 to 1000 nM | 100 to 1000 nM | 100 to 1000 nM | 10 to 100 nM | 100 to 1000 nM | – | – | – | – | – | – | – | – | – |
| CCn1c(-c2cccnc2[C@H](C)OC)c2c3cc(ccc31)-c1csc(n1)C[C@H](NC(=O)[C@H](C(C)C)N(C)C(=O)N1CCN(C(=O)[C@@H]3CN3)[C@H](C)C1)C(=O)N1CCC[C@H](N1)C(=O)OCC(C)(C)C2 [Example 300] | 100 to 1000 nM | 10 to 100 nM | 100 to 1000 nM | 100 to 1000 nM | 10 to 100 nM | 100 to 1000 nM | 100 to 1000 nM | 100 to 1000 nM | 100 to 1000 nM | 100 to 1000 nM | 10 to 100 nM | 100 to 1000 nM | – | – | – | – | – | – | – | – | – |
| CCn1c(-c2cccnc2[C@H](C)OC)c2c3cc(ccc31)-c1csc(n1)C[C@H](NC(=O)[C@H](C(C)C)N(C)C(=O)N1CCN(C(=O)[C@H]3CN3)C[C@H]1C)C(=O)N1CCC[C@H](N1)C(=O)OCC(C)(C)C2 [Example 301] | 10 to 100 nM | 10 to 100 nM | 10 to 100 nM | 100 to 1000 nM | 10 to 100 nM | 100 to 1000 nM | 10 to 100 nM | 10 to 100 nM | 10 to 100 nM | 10 to 100 nM | 10 to 100 nM | 100 to 1000 nM | – | – | – | – | – | – | – | – | – |
| CCn1c(-c2cccnc2[C@H](C)OC)c2c3cc(ccc31)-c1csc(n1)C[C@H](NC(=O)[C@H](C(C)C)N(C)C(=O)N1CCN(C(=O)[C@@H]3CN3)C[C@H]1C)C(=O)N1CCC[C@H](N1)C(=O)OCC(C)(C)C2 [Example 302] | 10 to 100 nM | 10 to 100 nM | 10 to 100 nM | 100 to 1000 nM | 10 to 100 nM | 10 to 100 nM | 10 to 100 nM | 10 to 100 nM | 10 to 100 nM | 100 to 1000 nM | 10 to 100 nM | 100 to 1000 nM | – | – | – | – | – | – | – | – | – |
| CCn1c(-c2cccnc2[C@H](C)OC)c2c3cc(ccc31)-c1cc(O)cc(c1)C[C@H](NC(=O)[C@H](C(C)C)N1CC[C@]3(CCN(C(=O)[C@@H]4N[C@@H]4C4CC4)C3)C1=O)C(=O)N1CCC[C@H](N1)C(=O)OCC(C)(C)C2 [Example 305] | 10 to 100 nM | 10 to 100 nM | 10 to 100 nM | 100 to 1000 nM | 10 to 100 nM | 10 to 100 nM | 10 to 100 nM | 100 to 1000 nM | 10 to 100 nM | 10 to 100 nM | 100 to 1000 nM | < 10 nM | – | – | – | – | – | – | – | – | – |
| CCN1C[C@@H]1C(=O)N(C)CC(=O)N(C)[C@H](C(=O)N[C@H]1Cc2cc(O)cc(c2)-c2ccc3c(c2)c(c(-c2cccnc2[C@H](C)OC)n3CC)CC(C)(C)COC(=O)[C@@H]2CCCN(N2)C1=O)C1CCCC1 (stereo partly drawn) [Example 309] | – | – | – | – | – | – | – | – | – | – | – | – | < 10 nM | 10 to 100 nM | 10 to 100 nM | 10 to 100 nM | < 10 nM | 10 to 100 nM | 10 to 100 nM | 100 to 1000 nM | IC50 [9, 30]: 10 to 100 nM; IC50 [10, 31]: 10 to 100 nM; IC50 [11]: 100 to 1000 nM; IC50 [12, 32]: 10 to 100 nM |
| CCn1c(-c2cccnc2[C@H](C)OC)c2c3cc(ccc31)-c1cc(O)cc(c1)C[C@H](NC(=O)[C@@H](COC1CN(C(=O)[C@H]3CN3)C1)C(C)C)C(=O)N1CCC[C@H](N1)C(=O)OCC(C)(C)C2 [Example 312] | < 10 nM | 100 to 1000 nM | 100 to 1000 nM | 1000 to 10000 nM | < 10 nM | 1000 to 10000 nM | 100 to 1000 nM | 1000 to 10000 nM | 1000 to 10000 nM | 100 to 1000 nM | 1000 to 10000 nM | 1000 to 10000 nM | – | – | – | – | – | – | – | – | – |
| CCn1c(-c2cccnc2[C@H](C)OC)c2c3cc(ccc31)-c1cc(O)cc(c1)C[C@H](NC(=O)[C@H](C1CCCC1)N(C)C(=O)CN(C)C(=O)[C@@H]1N[C@@H]1C1(F)CC1)C(=O)N1CCC[C@H](N1)C(=O)OCC(C)(C)C2 [Example 314] | – | – | – | – | – | – | – | – | – | – | – | – | 10 to 100 nM | 10 to 100 nM | 10 to 100 nM | 10 to 100 nM | 10 to 100 nM | 10 to 100 nM | 10 to 100 nM | 100 to 1000 nM | IC50 [9, 30]: 10 to 100 nM; IC50 [10, 31]: 10 to 100 nM; IC50 [11]: 100 to 1000 nM; IC50 [12, 32]: 100 to 1000 nM |
| CCn1c(-c2cccnc2[C@H](C)OC)c2c3cc(ccc31)-c1cc(O)cc(c1)C[C@H](NC(=O)[C@H](C1CCCC1)N(C)C(=O)CN(C)C(=O)[C@H]1N[C@H]1C1(F)CC1)C(=O)N1CCC[C@H](N1)C(=O)OCC(C)(C)C2 [Example 315] | – | – | – | – | – | – | – | – | – | – | – | – | 10 to 100 nM | 10 to 100 nM | 10 to 100 nM | 10 to 100 nM | 10 to 100 nM | 10 to 100 nM | < 10 nM | 100 to 1000 nM | IC50 [9, 30]: 10 to 100 nM; IC50 [10, 31]: 10 to 100 nM; IC50 [11]: 10 to 100 nM; IC50 [12, 32]: 10 to 100 nM |
| CCn1c(-c2cccnc2[C@H](C)OC)c2c3cc(ccc31)-c1cc(O)cc(c1)C[C@H](NC(=O)[C@H](C1CCCC1)N(C)C(=O)CN(C)C(=O)[C@H]1N[C@H]1C1(C#N)CC1)C(=O)N1CCC[C@H](N1)C(=O)OCC(C)(C)C2 [Example 316] | – | – | – | – | – | – | – | – | – | – | – | – | 10 to 100 nM | 10 to 100 nM | 10 to 100 nM | 10 to 100 nM | 10 to 100 nM | 10 to 100 nM | 10 to 100 nM | 100 to 1000 nM | IC50 [9, 30]: 10 to 100 nM; IC50 [10, 31]: 10 to 100 nM; IC50 [11]: 100 to 1000 nM; IC50 [12, 32]: 10 to 100 nM |

— US20230233569A1 (Revolution Medicines, Inc., priority 2020, published 2023)
